Measurements from PubChem BioAssay AID651878 (Vanderbilt Specialized Chemistry Center, 2012).
pEC50: −log10 of the molar value. Calls of active or inactive are those of the source.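 How the source made its calls: active means Positive modulators of the M5 receptor in a calcium signal test, half-maximal potency under 10 µM; inactive means the rest.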

What follows are molecules tested against Muscarinic acetylcholine receptor M5 (Homo sapiens) (UniProt P08912) (assay: M5 receptor positive allosteric modulators, dose response, cell-based, concentration-response curve (AID 651878)). Settings: CHO-K1 hM5, Fluo-4 calcium flux, ACh EC20 potentiation.
Sequence of Muscarinic acetylcholine receptor M5 (Homo sapiens) (P08912 whole entry, looked up): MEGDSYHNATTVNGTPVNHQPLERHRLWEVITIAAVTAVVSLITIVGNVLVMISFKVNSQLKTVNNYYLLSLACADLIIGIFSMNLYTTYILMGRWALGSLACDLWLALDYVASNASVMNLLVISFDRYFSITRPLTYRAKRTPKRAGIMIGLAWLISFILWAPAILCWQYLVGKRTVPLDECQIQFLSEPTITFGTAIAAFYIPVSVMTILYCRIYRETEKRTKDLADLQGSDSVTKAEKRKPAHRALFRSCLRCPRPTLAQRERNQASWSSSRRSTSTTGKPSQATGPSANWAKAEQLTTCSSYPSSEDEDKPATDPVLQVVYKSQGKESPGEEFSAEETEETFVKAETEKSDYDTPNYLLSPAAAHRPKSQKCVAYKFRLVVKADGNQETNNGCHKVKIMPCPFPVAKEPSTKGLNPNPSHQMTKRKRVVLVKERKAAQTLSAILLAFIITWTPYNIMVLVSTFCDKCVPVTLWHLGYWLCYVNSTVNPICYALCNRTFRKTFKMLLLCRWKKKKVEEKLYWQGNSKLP

| SMILES | pEC50 |
| --- | --- |
| COc1ccc(CN2C(=O)C(O)(c3ccc(F)nc3)c3cc(OC(F)(F)F)ccc32)cc1 (configuration not stated) | 5.66 |
| COc1ccc(CN2C(=O)C(O)(C[N+](=O)[O-])c3cc(OC(F)(F)F)ccc32)cc1 (configuration not stated) | 5.86 |

Same assay, conditions: CHO-K1 hM5, Fluo-4 calcium flux, ACh EC20 potentiation; at 31.6 µM (top of the series)

| SMILES | % ACh max response |
| --- | --- |
| COc1ccc(CN2C(=O)C3(COC3)c3cc(OC(F)(F)F)ccc32)cc1 | inactive |
| COc1ccc(CN2C(=O)C(CO)(CO)c3cc(OC(F)(F)F)ccc32)cc1 | inactive |
| COc1ccc(CN2C(=O)C(O)(c3ccc(N(C)C)nc3)c3cc(OC(F)(F)F)ccc32)cc1 (configuration not stated) | inactive |
| COc1ccc(-c2ccc(CN3C(=O)C(=O)c4cc(OC(F)(F)F)ccc43)cc2)cn1 | 71.9% |
| COc1ncc(-c2ccc(CN3C(=O)C(=O)c4cc(OC(F)(F)F)ccc43)cc2)cn1 | 74.4% |
